Series [1] can be described thus: Maximum wavelength of formed pigment. The series is classed as physicochemical. As for the experimental part: 50 μl of 1 mM each free compound was added to 3 ml of 0.1M phosphate buffer containing 0.5 mg/ml EMSE and 1 U/ml laccase and the mixture was incubated at 37° C. for 5 minutes. The absorption of the reaction solution at λmax was measured. As a control, 5-aminosalicylic acid was used and the reaction of the compound with 2,6-xylenol was carried out in the presence of metaperiodate under strong alkaline conditions.

Series [2] in a line: Stability of pigment. The series is classed as physicochemical.
Series [3] is described as follows: Solubility of substrate. Particulars: read-out: S: Solubility. The series is classed as physicochemical.
For series [4], the system named is leucine aminopeptidase (LAP). Nature of the series: LAP determination in serum, end-point colour reactions (Example 2). The series is classed as biochemical. How it is done: The reagent solution wherein laccase was excluded from the reagent solution of Example 1 was used.
3 ml of the reagent solution was incubated at 37° C. for 10 minutes and to the mixture was added 0.05 ml of a serum sample. The mixture was immediately stirred and incubated at 37° C. for 10 minutes. After ten minutes passed,
(a) 0.03 ml of 10 mg/ml α-naphthol methanol solution and 0.1 ml of 1N-NaOH solution containing 50 mg/ml sodium salt of meta-periodate were added to the solution. The mixture was incubated at 37° C. for 10 minutes and the absorption of the reaction solution at 600 nm was measured.
(b) 1 ml of 10 mg/ml p-N,N-dimethylamino cinnamaldehyde ethanol solution and 1 ml of 0.4N-HCl solution were added to the solution and the mixture was incubated at 37° C. for 10 minutes. The absorption of the reaction solution at 570 nm was measured.
(c) 0.5 ml of 1N-HCl and 0.5 ml of 1 mg/ml sodium nitrite were added to the solution and the mixture was incubated at 37° C. for 10 minutes. Then 0.1 ml of 1 mg/ml 3,5-xylenol ethanol solution was added thereto and the absorption of the reaction solution at 650 nm was measured.

The subject of series [5] is leucine aminopeptidase (LAP). Kind of series: LAP determination in serum, absorption change per minute (Example 1). The series is classed as biochemical. How it is done: 3 ml of the reagent solution was incubated at 37° C. for ten minutes. To the solution was added 0.05 ml of a serum sample and the mixture was immediately stirred and the change in absorption of the solution at 745 nm was measured for one minute.
LAP activity in the sample can be calculated using the following equation: [formula] ΔE means the amount of absorption change per minute.
The same procedures as described above were repeated except that the following materials were used. […]

Where [6] appears, read: Serum(1), 37° C., 745 nm Compound No. 2, 635 nm (a), 565 nm (b), 675 nm (c).

Converted amounts (≈) assume the structure as drawn.

For orientation: solubility means the dissolved amount per volume that the medium holds. In the case of `Cc1cc(NC(=O)[C@@H](N)CC(C)C)ccc1N(CCS(=O)(=O)O)CCS(=O)(=O)O` [compound 12], the “λmax: Maximum wavelength” value in series [1] is listed as 715 nm. Moreover, in series [2], the “ST: Stability of pigment” value is reported as more than 98%. Besides, the solubility in series [3] was more than 200 mg/mL.
Turning to `CC(C)C[C@H](N)C(=O)Nc1ccc(N(CCCS(=O)(=O)O)CCCS(=O)(=O)O)cc1` [Compound No. 2, L-leucyl-p-N,N-disulfopropyl aminoanilide], the Ratio of sensitivity stood at 100 in series [4] (Example 1 method (EMSE + laccase, 745 nm), reference); 73 in series [4] (method (a), relative to Example 1 = 100); 85 in series [4] (method (b), relative to Example 1 = 100); 61 in series [4] (method (c), relative to Example 1 = 100). Moreover, the “absorption of the reaction solution” value is given as 0.331 in series [4] (method (a) α-naphthol + meta-periodate/NaOH, 600 nm, Serum 1); 0.291 in series [4] (method (a), 600 nm, Serum 2); 0.389 in series [4] (method (a), 600 nm, Serum 3); 0.395 in series [4] (method (a), 600 nm, Serum 4); 0.277 in series [4] (method (a), 600 nm, Serum 5); 0.322 in series [4] (method (a), 600 nm, Serum 6). Moreover, the “absorption of the reaction solution” value amounted to 0.291 in series [4] (method (a), 600 nm, Serum 7); 0.386 in series [4] (method (a), 600 nm, Serum 8); 0.392 in series [4] (method (a), 600 nm, Serum 9); 0.346 in series [4] (method (a), 600 nm, Serum 10); 0.386 in series [4] (method (b) p-N,N-dimethylamino cinnamaldehyde/HCl, 570 nm, Serum 1); 0.336 in series [4] (method (b), 570 nm, Serum 2). Also, the “absorption of the reaction solution” value in series [4] (method (b), 570 nm, Serum 3) stood at 0.466; in series [4] (method (b), 570 nm, Serum 4), 0.460; in series [4] (method (b), 570 nm, Serum 5), 0.320; in series [4] (method (b), 570 nm, Serum 6), 0.372; in series [4] (method (b), 570 nm, Serum 7), 0.333; in series [4] (method (b), 570 nm, Serum 8), 0.453. Also, the “absorption of the reaction solution” value in series [4] (method (b), 570 nm, Serum 9) was 0.460; in series [4] (method (b), 570 nm, Serum 10) it was 0.405; in series [4] (method (c) sodium nitrite/HCl then 3,5-xylenol, 650 nm, Serum 1), 0.277; in series [4] (method (c), 650 nm, Serum 2), 0.241; in series [4] (method (c), 650 nm, Serum 3), 0.330; in series [4] (method (c), 650 nm, Serum 4), 0.325. Besides, the “absorption of the reaction solution” value in series [4] (method (c), 650 nm, Serum 5) was found to be 0.230; in series [4] (method (c), 650 nm, Serum 6), 0.270; in series [4] (method (c), 650 nm, Serum 7) it was 0.244; in series [4] (method (c), 650 nm, Serum 8), 0.325; in series [4] (method (c), 650 nm, Serum 9), 0.331; in series [4] (method (c), 650 nm, Serum 10), 0.292. For the same compound, the “λmax: Maximum wavelength” value in series [1] is given as 745 nm. Moreover, the “ST: Stability of pigment” value in series [2] is more than 98%. Also, the “amount of absorption change per minute” value was 0.0395 in series [5] (Serum (2), same wavelengths); 0.0543 in series [5] (Serum (3), same wavelengths); 0.0541 in series [5] (Serum (4), same wavelengths); 0.0382 in series [5] (Serum (5), same wavelengths); 0.0437 in series [5] (Serum (6), same wavelengths); 0.0400 in series [5] (Serum (7), same wavelengths). For the same compound, the “amount of absorption change per minute” value in series [5] (Serum (8), same wavelengths) came out at 0.0532; in series [5] (Serum (9), same wavelengths), 0.0537; in series [5] (Serum (10), same wavelengths) it was 0.0476; in series [5] (setting [6]), 0.0454. In addition, the solubility in series [3] turned out to be 130 mg/mL (≈ 279 mM).
Regarding `CC(C)C[C@H](N)C(=O)Nc1ccc([N+](=O)[O-])cc1` [(b), L-leucil-p-nitroanilide], the “amount of absorption change per minute” value in series [5] (Serum (2), same wavelengths) was 0.0054; in series [5] (Serum (3), same wavelengths), 0.0090; in series [5] (Serum (4), same wavelengths) it was 0.0089; in series [5] (Serum (5), same wavelengths) it was 0.0071; in series [5] (Serum (6), same wavelengths) it was 0.0071; in series [5] (Serum (7), same wavelengths), 0.0074. Further, the “amount of absorption change per minute” value in series [5] (Serum (8), same wavelengths) turned out to be 0.0086; in series [5] (Serum (9), same wavelengths), 0.0082; in series [5] (Serum (10), same wavelengths) it was 0.0079; in series [5] (setting [6]), 0.0071.
In the case of `COc1cc(N(CCCCS(=O)(=O)O)CCCCS(=O)(=O)O)c(C)cc1NC(=O)[C@@H](N)CC(C)C` [compound 14], the “λmax: Maximum wavelength” value in series [1] is 720 nm. In addition, the “ST: Stability of pigment” value in series [2] is reported as more than 98%. Further, the solubility in series [3] was more than 200 mg/mL.
For `CC(C)C[C@H](N)C(=O)Nc1ccc(N(CCCS(=O)(=O)O)CCCS(=O)(=O)O)c(Cl)c1` [compound 10], in that order: 685 nm, more than 98% and 125 mg/mL (≈ 250 mM).
For the compound `CC(C)C[C@H](N)C(=O)Nc1ccc(N(C)CCCS(=O)(=O)O)cc1` [compound 4], the “λmax: Maximum wavelength” value in series [1] turned out to be 750 nm. Also, the “ST: Stability of pigment” value in series [2] was more than 96%. Besides, the solubility in series [3] amounted to 65 mg/mL (≈ 182 mM).
`CC(C)C[C@H](N)C(=O)Nc1ccc(N(CCCS(=O)(=O)O)CCCS(=O)(=O)O)c(S(=O)(=O)O)c1` [compound 8]: in series [1], the “λmax: Maximum wavelength” value stood at 680 nm. Besides, the “ST: Stability of pigment” value in series [2] is recorded as 93%. Also, the solubility in series [3] is more than 200 mg/mL.
In the case of `CC(C)C[C@H](N)C(=O)Nc1ccc(O)c(C(=O)O)c1` [Control, reference compound], the “λmax: Maximum wavelength” value in series [1] was 615 nm. Besides, the “ST: Stability of pigment” value in series [2] turned out to be 90%. In series [3], the solubility is less than 20 mg/mL.
Taken in the same sequence, the figures for `COC(=O)c1cc(NC(=O)[C@@H](N)CC(C)C)ccc1N(CCCCS(=O)(=O)O)CCCCS(=O)(=O)O` [compound 13] were 705 nm, more than 98% and more than 200 mg/mL.
For the compound `CC(C)C[C@H](N)C(=O)Nc1ccc(N(CCS(=O)(=O)O)CCS(=O)(=O)O)c(C#N)c1` [compound 11], the “λmax: Maximum wavelength” value in series [1] is recorded as 640 nm. Further, in series [2], the “ST: Stability of pigment” value came out at 95%. Moreover, the solubility in series [3] was more than 200 mg/mL.
On to `CC(C)C[C@H](N)C(=O)Nc1ccc(O)c(C(=O)O)c1` [(a), L-leucil-3-carboxy-4-hydroxyanilide], for which the “amount of absorption change per minute” value in series [5] (Serum (2), same wavelengths) turned out to be 0.0127; in series [5] (Serum (3), same wavelengths), 0.0198; in series [5] (Serum (4), same wavelengths), 0.0203; in series [5] (Serum (5), same wavelengths), 0.0148; in series [5] (Serum (6), same wavelengths), 0.0158; in series [5] (Serum (7), same wavelengths) it was 0.0153. The “amount of absorption change per minute” value in series [5] (Serum (8), same wavelengths) is 0.0191; in series [5] (Serum (9), same wavelengths), 0.0190; in series [5] (Serum (10), same wavelengths), 0.0184; in series [5] (setting [6]), 0.0188.
`CCN(CC)c1ccc(NC(=O)[C@@H](N)CC(C)C)cc1` [(c), L-leucil-p-N,N-- diethylaminoanilide]: the “amount of absorption change per minute” value is 0.0095 in series [5] (Serum (2), same wavelengths); 0.0150 in series [5] (Serum (3), same wavelengths); 0.0145 in series [5] (Serum (4), same wavelengths); 0.0116 in series [5] (Serum (5), same wavelengths); 0.0126 in series [5] (Serum (6), same wavelengths); 0.0113 in series [5] (Serum (7), same wavelengths). Moreover, the “amount of absorption change per minute” value was found to be 0.0150 in series [5] (Serum (8), same wavelengths); 0.0138 in series [5] (Serum (9), same wavelengths); 0.0133 in series [5] (Serum (10), same wavelengths); 0.0158 in series [5] (setting [6]).
As for `CCN(CC(O)CS(=O)(=O)O)c1ccc(NC(=O)[C@@H](N)CC(C)C)cc1` (some centres unmarked) [compound 6], in series [1], the “λmax: Maximum wavelength” value is on record as 740 nm. The “ST: Stability of pigment” value in series [2] is more than 98%. Also, the solubility in series [3] turned out to be 90 mg/mL (≈ 232 mM).

Source of the values: patent US4877727A, “Substrate for determining leucine aminopeptidase or gamma-glutamyltranspeptase activity” (Kyowa Medex Co., Ltd., priority 1984, dated 1989).
